Results: patent US11173151B2, “Substituted triazole derivatives and uses thereof” (BAYER AKTIENGESELLSCHAFT, priority 2017, dated 2021)
pIC50: −log10 of the molar value. Where two headings read alike, the source gives them in different places.

Experiments:
human V1a receptor = biological target: T1, human V1a receptor (Homo sapiens, UniProt P37288); assay: Cellular in vitro assay for determining vasopressin receptor activity, V1a receptor cell line (CHO, aequorin luminescence); type: cell-based; conditions: for pIC50: CHO cell line transfected with human V1a receptor, [Arg]-vasopressin at EC50 concentration, read-out: IC50 hV1a; for ratio IC50 hV2/hV1a: selectivity ratio IC50 hV2 / IC50 hV1a
T1 construct: expressed in transfected cells; host or cells: CHO K1 (ATCC), also stably transfected with a modified aequorin
T1 sequence (P37288 whole entry): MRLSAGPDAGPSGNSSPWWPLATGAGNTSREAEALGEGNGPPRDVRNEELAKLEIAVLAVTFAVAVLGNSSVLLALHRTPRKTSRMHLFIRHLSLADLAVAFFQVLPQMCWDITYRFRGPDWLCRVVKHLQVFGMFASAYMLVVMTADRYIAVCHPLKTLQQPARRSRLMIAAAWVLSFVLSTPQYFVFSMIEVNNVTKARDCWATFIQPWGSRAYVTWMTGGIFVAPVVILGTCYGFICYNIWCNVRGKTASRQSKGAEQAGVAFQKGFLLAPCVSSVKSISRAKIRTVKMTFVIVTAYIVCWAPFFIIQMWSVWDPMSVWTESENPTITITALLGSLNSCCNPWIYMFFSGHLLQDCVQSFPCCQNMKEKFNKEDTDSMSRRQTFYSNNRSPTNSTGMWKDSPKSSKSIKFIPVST
Summary of the method: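 IC50 from inhibition of [Arg]-vasopressin (EC50 concentration)-evoked aequorin luminescence in CHO K1 cells, with 10-min compound pretreatment.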

human V2 receptor = biological target: T2, human V2 receptor (Homo sapiens, UniProt P30518); assay: Cellular in vitro assay for determining vasopressin receptor activity, V2 receptor cell line (CHO, CRE-luciferase); type: cell-based; conditions: CHO cell line transfected with human V2 receptor, [Arg8]-vasopressin at EC50 concentration, read-out: IC50 hV2
T2 construct: expressed in transfected cells; host or cells: CHO K1 (ATCC) expressing firefly luciferase under a CRE-responsive promoter
T2 sequence (P30518 whole entry): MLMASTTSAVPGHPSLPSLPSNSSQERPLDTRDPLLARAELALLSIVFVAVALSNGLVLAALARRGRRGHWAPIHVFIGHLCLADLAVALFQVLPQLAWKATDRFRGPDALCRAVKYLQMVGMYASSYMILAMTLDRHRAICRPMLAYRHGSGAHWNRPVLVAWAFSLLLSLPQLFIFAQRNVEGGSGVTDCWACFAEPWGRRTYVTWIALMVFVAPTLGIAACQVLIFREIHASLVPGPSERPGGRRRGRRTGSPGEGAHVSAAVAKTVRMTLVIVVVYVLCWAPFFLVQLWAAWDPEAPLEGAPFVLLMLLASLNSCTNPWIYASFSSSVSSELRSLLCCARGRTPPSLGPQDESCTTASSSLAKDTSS

Compound | pIC50 (human V1a receptor) | ratio IC50 hV2/hV1a (human V1a receptor) | pIC50 (human V2 receptor; 3 hours) | pIC50 (human V2 receptor)
CCCC(=O)Nc1ncccc1-n1cnc(Cn2nc(-c3ccc(Cl)cc3)n(C[C@H](O)C(F)(F)F)c2=O)n1 [Example 146] | 7.25 | 9.9 | 6.26 | 
O=C(CC1CC1)Nc1ccncc1-n1cnc(Cn2nc(-c3ccc(Cl)cc3)n(C[C@H](O)C(F)(F)F)c2=O)n1 [Example 30, N-{3-[3-({3-(4-Chlorophenyl)-5-oxo-4-[(2S)-3,3,3-trifluoro-2-hydroxypropyl]-4,5-dihydro-1H-1,2,4-triazol-1-yl}methyl)-1H-1,2,4-triazol-1-yl]pyridin-4-yl}-2-cyclopropylacetamide] | 7.89 | 61.0 | 6.11 | 
O=C(NC1CC(F)(F)C1)c1ncccc1-n1cnc(Cn2nc(-c3ccc(Cl)cc3)n(C[C@@H](O)C(F)(F)F)c2=O)n1 [Example 465, 3-[3-({3-(4-Chlorophenyl)-5-oxo-4-[(2R)-3,3,3-trifluoro-2-hydroxypropyl]-4,5-dihydro-1H-1,2,4-triazol-1-yl}methyl)-1H-1,2,4-triazol-1-yl]-N-(3,3-difluorocyclobutyl)pyridine-2-carboxamide] | 6.77 | 21.2 |  | 5.44
O=C(NCc1cccc(F)c1F)c1ccccc1-n1cnc(Cn2nc(-c3ccc(Cl)cc3)n(C[C@H](O)C(F)(F)F)c2=O)n1 [Example 203, 2-[3-({3-(4-Chlorophenyl)-5-oxo-4-[(2S)-3,3,3-trifluoro-2-hydroxypropyl]-4,5-dihydro-1H-1,2,4-triazol-1-yl}methyl)-1H-1,2,4-triazol-1-yl]-N-(2,3-difluorobenzyl)benzamide] | 8.08 | 26.9 | 6.65 | 
NC(CNC(=O)c1cccc(Cl)c1-n1cnc(Cn2nc(-c3ccc(Cl)cc3)n(C[C@@H](O)C(F)(F)F)c2=O)n1)C(F)(F)F (mixture of isomers) [Example 408, N-[2-Amino-3,3,3-trifluoropropyl]-3-chloro-2-[3-({3-(4-chlorophenyl)-5-oxo-4-[(2R)-3,3,3-trifluoro-2-hydroxypropyl]-4,5-dihydro-1H-1,2,4-triazol-1-yl}methyl)-1H-1,2,4-triazol-1-yl]benzamide] | 6.40 | 21.3 |  | 5.07
O=C(Nc1ccc(F)cc1F)c1ccccc1-n1cnc(Cn2nc(-c3ccc(Cl)cc3)n(C[C@H](O)C(F)(F)F)c2=O)n1 [Example 303, 2-[3-({3-(4-Chlorophenyl)-5-oxo-4-[(2S)-3,3,3-trifluoro-2-hydroxypropyl]-4,5-dihydro-1H-1,2,4-triazol-1-yl}methyl)-1H-1,2,4-triazol-1-yl]-N-(2,4-difluorophenyl)benzamide] | 8.67 | 234.9 | 6.30 | 
Cc1ccnc(NC(=O)c2ccccc2-n2cnc(Cn3nc(-c4ccc(Cl)cc4)n(C[C@H](O)C(F)(F)F)c3=O)n2)n1 [Example 240, 2-[3-({3-(4-Chlorophenyl)-5-oxo-4-[(2S)-3,3,3-trifluoro-2-hydroxypropyl]-4,5-dihydro-1H-1,2,4-triazol-1-yl}methyl)-1H-1,2,4-triazol-1-yl]-N-(4-methylpyrimidin-2-yl)benzamide] | 7.90 | 24.0 | 6.52 | 
O=C(Nc1ccncc1-n1cnc(Cn2nc(-c3ccc(Cl)cc3)n(C[C@H](O)C(F)(F)F)c2=O)n1)[C@@H]1C[C@@H]1F (single isomer, unassigned) [Example 35] | 7.98 | 52.7 | 6.26 | 
Cc1ccc(NC(=O)c2ccccc2-n2cnc(Cn3nc(-c4ccc(Cl)cc4)n(C[C@H](O)C(F)(F)F)c3=O)n2)cn1 [Example 249, 2-[3-({3-(4-Chlorophenyl)-5-oxo-4-[(2S)-3,3,3-trifluoro-2-hydroxypropyl]-4,5-dihydro-1H-1,2,4-triazol-1-yl}methyl)-1H-1,2,4-triazol-1-yl]-N-(6-methylpyridin-3-yl)benzamide] | 8.55 | 48.6 | 6.87 | 
Cc1cccc(C(=O)Nc2ncccc2-n2cnc(Cn3nc(-c4ccc(Cl)cc4)n(C[C@H](O)C(F)(F)F)c3=O)n2)c1 [Example 162] | 6.52 | 24.0 | 5.14 | 

Second part, the molecule after the results:

pIC50 (human V1a receptor) | ratio IC50 hV2/hV1a (human V1a receptor) | pIC50 (human V2 receptor; 3 hours) | pIC50 (human V2 receptor) | Compound
7.40 | 100.0 | 5.40 |  | CC1CC(=O)NC1C(=O)Nc1ncccc1-n1cnc(Cn2nc(-c3ccc(Cl)cc3)n(C[C@H](O)C(F)(F)F)c2=O)n1 (stereo partly drawn) [Example 99]
6.74 | 20.1 |  | 5.44 | CC(C)(N)CNC(=O)c1nc(Cn2nc(-c3ccc(Cl)cc3)n(C[C@H](O)C(F)(F)F)c2=O)nn1-c1cnccc1C(=O)NCC(F)(F)F [Example 534, 3-{5-[(2-Amino-2-methylpropyl)carbamoyl]-3-({3-(4-chlorophenyl)-5-oxo-4-[(2S)-3,3,3-trifluoro-2-hydroxypropyl]-4,5-dihydro-1H-1,2,4-triazol-1-yl}methyl)-1H-1,2,4-triazol-1-yl}-N-(2,2,2-trifluoroethyl)pyridine-4-carboxamide]
5.06 | 2.3 |  | 4.70 | COCC1CCCN1C(=O)c1cccnc1-n1nc(Cn2nc(-c3ccc(Cl)cc3)n(C[C@H](O)C(F)(F)F)c2=O)nc1C(=O)N1CCNC(=O)C1 (mixture of isomers) [Example 526, 4-{[3-({3-(4-Chlorophenyl)-5-oxo-4-[(2S)-3,3,3-trifluoro-2-hydroxypropyl]-4,5-dihydro-1H-1,2,4-triazol-1-yl}methyl)-1-(3-{[2-(methoxymethyl)pyrrolidin-1-yl]carbonyl}pyridin-2-yl)-1H-1,2,4-triazol-5-yl]carbonyl}piperazin-2-one]
7.32 | 30.5 | 5.84 |  | O=C(c1cccc(Cl)c1-n1cnc(Cn2nc(-c3ccc(Cl)cc3)n(C[C@H](O)C(F)(F)F)c2=O)n1)N1CCC(F)(F)C1 [Example 374, 2-[(1-{2-Chloro-6-[(3,3-difluoropyrrolidin-1-yl)carbonyl]phenyl}-1H-1,2,4-triazol-3-yl)methyl]-5-(4-chlorophenyl)-4-[(2S)-3,3,3-trifluoro-2-hydroxypropyl]-2,4-dihydro-3H-1,2,4-triazol-3-one]
7.48 | 74.2 | 5.61 |  | CN1CCN(C(=O)c2ccccc2-n2cnc(Cn3nc(-c4ccc(Cl)cc4)n(C[C@H](O)C(F)(F)F)c3=O)n2)CC1 [Example 357, 5-(4-Chlorophenyl)-2-[(1-{2-[(4-methylpiperazin-1-yl)carbonyl]phenyl}-1H-1,2,4-triazol-3-yl)methyl]-4-[(2S)-3,3,3-trifluoro-2-hydroxypropyl]-2,4-dihydro-3H-1,2,4-triazol-3-one]
7.85 | 64.6 |  | 6.04 | N#CC1(NC(=O)c2cccnc2-n2cnc(Cn3nc(-c4ccc(Cl)cc4)n(C[C@H](O)C(F)(F)F)c3=O)n2)CC1 [Example 506, 2-[3-({3-(4-Chlorophenyl)-5-oxo-4-[(2S)-3,3,3-trifluoro-2-hydroxypropyl]-4,5-dihydro-1H-1,2,4-triazol-1-yl}methyl)-1H-1,2,4-triazol-1-yl]-N-(1-cyanocyclopropyl)pyridine-3-carboxamide]
7.40 | 472.5 |  | 4.72 | COC[C@@H]1CCCN1C(=O)c1cccc(C(F)(F)F)c1-n1cnc(Cn2nc(-c3ccc(Cl)cc3)n(C[C@H](O)C(F)(F)F)c2=O)n1 [Example 423, 5-(4-Chlorophenyl)-2-({1-[2-{[(2S)-2-(methoxymethyl)pyrrolidin-1-yl]carbonyl}-6-(trifluoromethyl)phenyl]-1H-1,2,4-triazol-3-yl}methyl)-4-[(2S)-3,3,3-trifluoro-2-hydroxypropyl]-2,4-dihydro-3H-1,2,4-triazol-3-one]
7.76 | 188.6 | 5.48 |  | O=C(NN1CCOCC1)c1ccccc1-n1cnc(Cn2nc(-c3ccc(Cl)cc3)n(C[C@H](O)C(F)(F)F)c2=O)n1 [Example 308, 2-[3-({3-(4-Chlorophenyl)-5-oxo-4-[(2S)-3,3,3-trifluoro-2-hydroxypropyl]-4,5-dihydro-1H-1,2,4-triazol-1-yl}methyl)-1H-1,2,4-triazol-1-yl]-N-(morpholin-4-yl)benzamide]
7.69 | 509.8 | 4.98 |  | CN(C)[C@H]1CCN(C(=O)c2ccccc2-n2cnc(Cn3nc(-c4ccc(Cl)cc4)n(C[C@H](O)C(F)(F)F)c3=O)n2)C1 [Example 332, 5-(4-Chlorophenyl)-2-{[1-(2-{[(3S)-3-(dimethylamino)pyrrolidin-1-yl]carbonyl}phenyl)-1H-1,2,4-triazol-3-yl]methyl}-4-[(2S)-3,3,3-trifluoro-2-hydroxypropyl]-2,4-dihydro-3H-1,2,4-triazol-3-one]
6.28 | 9.9 |  | 5.28 | O=C(NC1CC1)c1cccnc1-n1nc(Cn2nc(-c3ccc(Cl)cc3)n(C[C@H](O)C(F)(F)F)c2=O)nc1C(=O)N1CCS(=O)(=O)CC1 [Example 530, 2-{3-({3-(4-Chlorophenyl)-5-oxo-4-[(2S)-3,3,3-trifluoro-2-hydroxypropyl]-4,5-dihydro-1H-1,2,4-triazol-1-yl}methyl)-5-[(1,1-dioxidothiomorpholin-4-yl)carbonyl]-1H-1,2,4-triazol-1-yl}-N-cyclopropylpyridine-3-carboxamide]
